Earlier results as cited in patent US20230414599A1, “NICOTINAMIDE, NICOTINAMIDE PRECURSORS AND NICOTINAMIDE METABOLITES AND COMPOSITIONS THEREOF FOR REDUCING THE TIME TO RESOLUTION OF SYMPTOMS IN PATIENTS WITH COVID-19 AND OTHER VIRAL INFECTIONS” (CONARIS RESEARCH INSTITUTE AG, priority 2020, published 2023).

System: COVID-19
Details: patients with mild or moderate COVID-19; interim analysis; cited from earlier work

Compound: CC(C)C(=O)OC[C@H]1O[C@@H](n2ccc(NO)nc2=O)[C@H](O)[C@@H]1O [molnupiravir]
- Reduction of the risk of hospitalization or death compared to placebo: approximately 50%
